These results are taken from PubChem BioAssay AID330 (DTP/NCI, 2004).

The test relates to P388 leukemia ip, CD2F1 mice, survival T/C. The experiment in a line: NCI In Vivo Anticancer Drug Screen. Data for tumor model P388 Leukemia (intraperitoneal) in CD2F1 (CDF1) mice. The conditions noted are these: endpoint: median survival time, higher = longer survival. A digest of the protocol: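 Mice carrying the transplanted tumor received test compound or vehicle. Survival was recorded in each group, and the value is the treated-group measurement divided by that of the vehicle-treated control group.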

Where [1] appears, read: dose: 50.0 mg/kg/injection, schedule: Q01DX009 (ip), vehicle: saline with Tween-80.
[2] abbreviates: dose: 4.0 mg/kg/injection, schedule: Q01DX009 (ip), vehicle: Klucel (hydroxypropylcellulose) (HPC).
Where [3] appears, read: dose: 50.0 mg/kg/injection, schedule: Q01DX009 (ip), vehicle: saline.

Several values for one entry are separate records, joined by “and”; a condition that tells them apart may be missing. Identical values can stand only once. Inconclusive results and toxic doses are left out.

In the case of `Clc1cc(Cl)c(CBr)cc1CBr`, the T/C was 104 % of control (dose: 3.0 mg/kg/injection, schedule: Q04DX003 (ip), vehicle: saline with Tween-80); 104 % of control (dose: 6.0 mg/kg/injection, schedule: Q04DX003 (ip), vehicle: saline with Tween-80); 100 % of control (dose: 12.0 mg/kg/injection, schedule: Q04DX003 (ip), vehicle: saline with Tween-80).

On to `COc1cc2c(cc1OC)C(OC)N(C)c1c-2ccc2cc3c(cc12)OCO3` (configuration not stated), for which the T/C is, setting by setting: (dose: 2.0 mg/kg/injection, schedule: Q01DX009 (ip), vehicle: water) 122 % of control; (dose: 2.0 mg/kg/injection, schedule: Q03HX008 (ip), vehicle: water) 109 % of control; (dose: 4.0 mg/kg/injection, schedule: Q01DX009 (oral), vehicle: water) 104 % of control; (dose: 4.0 mg/kg/injection, schedule: Q01DX009 (sc), vehicle: water) 104 % of control; (dose: 4.0 mg/kg/injection, schedule: Q03HX008 (ip), vehicle: water) 122 % of control; (dose: 8.0 mg/kg/injection, schedule: Q01DX009 (oral), vehicle: water) 100 % of control. In addition, the T/C by setting is: (dose: 8.0 mg/kg/injection, schedule: Q01DX009 (sc), vehicle: water) 100 % of control; (dose: 8.0 mg/kg/injection, schedule: Q04DX003 (ip), vehicle: water) 119 % of control; (dose: 16.0 mg/kg/injection, schedule: Q01DX001 (ip), vehicle: water) 107 % of control; (dose: 16.0 mg/kg/injection, schedule: Q01DX009 (oral), vehicle: water) 101 % of control; (dose: 16.0 mg/kg/injection, schedule: Q01DX009 (sc), vehicle: water) 97 % of control; (dose: 16.0 mg/kg/injection, schedule: Q04DX003 (ip), vehicle: water) 122 % of control. The T/C (dose: 16.0 mg/kg/injection, schedule: Q08DX002 (ip), vehicle: water) was 109 % of control; the T/C (dose: 25.0 mg/kg/injection, schedule: Q01DX009 (ip), vehicle: other) is 158 % of control; the T/C (dose: 32.0 mg/kg/injection, schedule: Q01DX001 (ip), vehicle: water) was 104 % of control; the T/C (dose: 32.0 mg/kg/injection, schedule: Q01DX009 (ip), vehicle: saline) was 90 % of control; the T/C (dose: 32.0 mg/kg/injection, schedule: Q01DX009 (oral), vehicle: water) is 101 % of control; the T/C (dose: 32.0 mg/kg/injection, schedule: Q01DX009 (sc), vehicle: water) is 88 % of control. The T/C was 124 % of control (dose: 32.0 mg/kg/injection, schedule: Q04DX003 (ip), vehicle: water); 119 % of control (dose: 32.0 mg/kg/injection, schedule: Q08DX002 (ip), vehicle: water); 118 % of control (dose: 37.5 mg/kg/injection, schedule: Q01DX009 (ip), vehicle: saline with Tween-80); 154 % of control (dose: 44.0 mg/kg/injection, schedule: Q04DX003 (ip), vehicle: saline with Tween-80); 106 % of control (dose: 64.0 mg/kg/injection, schedule: Q01DX001 (ip), vehicle: water); 109 % of control (dose: 64.0 mg/kg/injection, schedule: Q01DX009 (oral), vehicle: water). The T/C reads like this: (dose: 64.0 mg/kg/injection, schedule: Q04DX003 (ip), vehicle: water) 106 % of control; (dose: 64.0 mg/kg/injection, schedule: Q08DX002 (ip), vehicle: water) 109 % of control; (dose: 66.0 mg/kg/injection, schedule: Q04DX003 (ip), vehicle: saline with Tween-80) 154 % of control and 181 % of control; (dose: 75.0 mg/kg/injection, schedule: Q01DX009 (ip), vehicle: saline with Tween-80) 86 % of control; (dose: 150.0 mg/kg/injection, schedule: Q04DX003 (ip), vehicle: saline with Tween-80) 90 % of control.

Regarding `CC[C@H]1C[C@H]2CN(CCc3c([nH]c4ccccc34)[C@@](C(=O)OC)(c3cc4c(cc3OC)N(C=O)[C@H]3[C@@](O)(C(=O)OC)[C@H](OC(C)=O)[C@]5(CC)CCCN6CC[C@]43[C@@H]65)C2)C1`, the T/C (dose: 0.5 mg/kg/injection, schedule: Q01DX001 (ip), vehicle: water) is 109 % of control; the T/C (dose: 1.0 mg/kg/injection, schedule: Q01DX001 (ip), vehicle: water) was 107 % of control; the T/C (dose: 8.0 mg/kg/injection, schedule: Q01DX001 (ip), vehicle: water) was 119 % of control.

With `Cl/N=C1C=C/C(=N\Cl)C=C/1Cl`, the T/C (dose: 6.25 mg/kg/injection, schedule: Q01DX005 (ip), vehicle: saline with Tween-80) is 110 % of control; the T/C (dose: 12.5 mg/kg/injection, schedule: Q01DX005 (ip), vehicle: saline with Tween-80) is 110 % of control; the T/C (dose: 25.0 mg/kg/injection, schedule: Q01DX005 (ip), vehicle: saline with Tween-80) is 107 % of control.

As for `CC1(C)CC(NC(=O)c2ccccc2)C(=O)O1` (configuration not stated), the T/C by setting is: under setting [1], 99 % of control; (dose: 100.0 mg/kg/injection, schedule: Q01DX009 (ip), vehicle: saline with Tween-80) 100 % of control; (dose: 200.0 mg/kg/injection, schedule: Q01DX009 (ip), vehicle: saline with Tween-80) 98 % of control.

As to `Oc1cccc2c1[O][Sb][O]2`, the T/C under setting [2] was 120 % of control; the T/C (dose: 4.0 mg/kg/injection, schedule: Q03HX016 (ip), vehicle: Klucel (hydroxypropylcellulose) (HPC)) was 101 % of control; the T/C (dose: 4.0 mg/kg/injection, schedule: Q03HX024 (ip), vehicle: Klucel (hydroxypropylcellulose) (HPC)) was 103 % of control; the T/C (dose: 8.0 mg/kg/injection, schedule: Q03HX024 (ip), vehicle: Klucel (hydroxypropylcellulose) (HPC)) is 116 % of control; the T/C under setting [3] is 166 % of control; the T/C (dose: 64.0 mg/kg/injection, schedule: Q01DX001 (ip), vehicle: Klucel (hydroxypropylcellulose) (HPC)) is 122 % of control. For the setting “dose: 128.0 mg/kg/injection, schedule: Q01DX001 (ip), vehicle: Klucel (hydroxypropylcellulose) (HPC)”, the T/C is 115 % of control.

As to `C=C1C2CC[C@@H]3C45C=NC[C@@](C)(CCC4)[C@@H]5CCC3(C2)[C@@H]1OC(C)=O`, the T/C under setting [2] is 94 % of control; the T/C (dose: 8.0 mg/kg/injection, schedule: Q01DX009 (ip), vehicle: Klucel (hydroxypropylcellulose) (HPC)) was 94 % of control; the T/C (dose: 16.0 mg/kg/injection, schedule: Q01DX009 (ip), vehicle: Klucel (hydroxypropylcellulose) (HPC)) was 95 % of control; the T/C (dose: 32.0 mg/kg/injection, schedule: Q01DX009 (ip), vehicle: Klucel (hydroxypropylcellulose) (HPC)) was 96 % of control.

On to `NNc1ncnc2nc[nH]c12`, for which the T/C reads like this: (dose: 6.25 mg/kg/injection, schedule: Q01DX009 (ip), vehicle: saline sonified) 95 % of control; (dose: 6.25 mg/kg/injection, schedule: Q01DX009 (ip), vehicle: saline) 100 % of control; (dose: 6.25 mg/kg/injection, schedule: Q01DX009 (ip), vehicle: suspension in saline) 111 % of control; (dose: 12.5 mg/kg/injection, schedule: Q01DX009 (ip), vehicle: saline sonified) 100 % of control; (dose: 12.5 mg/kg/injection, schedule: Q01DX009 (ip), vehicle: saline) 100 % of control; (dose: 12.5 mg/kg/injection, schedule: Q01DX009 (ip), vehicle: suspension in saline) 100 % of control. In addition, the T/C is 120 % of control (dose: 25.0 mg/kg/injection, schedule: Q01DX009 (ip), vehicle: saline sonified); 106 % of control (dose: 25.0 mg/kg/injection, schedule: Q01DX009 (ip), vehicle: saline); 103 % of control (dose: 25.0 mg/kg/injection, schedule: Q01DX009 (ip), vehicle: suspension in saline); 119 % of control (dose: 50.0 mg/kg/injection, schedule: Q01DX009 (ip), vehicle: suspension in saline); 109 % of control (dose: 100.0 mg/kg/injection, schedule: Q04DX003 (ip), vehicle: saline sonified); 90 % of control (dose: 200.0 mg/kg/injection, schedule: Q04DX003 (ip), vehicle: saline sonified).

For the molecule `CCCc1[nH]n(-c2ccccc2)c(=O)c1N=Nc1cccc(C(F)(F)F)c1`, the T/C by setting is: under setting [3], 93 % of control; (dose: 100.0 mg/kg/injection, schedule: Q01DX009 (ip), vehicle: saline) 96 % of control; (dose: 200.0 mg/kg/injection, schedule: Q01DX009 (ip), vehicle: saline) 90 % of control.

For the molecule `[B-][N+](C)(C)Cc1ccccc1`, the T/C runs as follows: (dose: 12.5 mg/kg/injection, schedule: Q01DX009 (ip), vehicle: saline with Tween-80) 90 % of control; (dose: 25.0 mg/kg/injection, schedule: Q01DX009 (ip), vehicle: saline with Tween-80) 90 % of control; under setting [1], 109 % of control.

Turning to `Oc1ccc2ccccc2c1C=NCCS`, the T/C was 87 % of control (dose: 60.0 mg/kg/injection, schedule: Q01DX005 (ip), vehicle: saline with Tween-80) and 87 % of control (dose: 120.0 mg/kg/injection, schedule: Q01DX005 (ip), vehicle: saline with Tween-80).
